Here are results for five compounds from patent US11629121B2, “Benzylideneacetone derivative and use thereof” (KORPHARM CO., LTD., priority 2017, dated 2023).

Holding throughout (format): cell-based
The subject of series [1] is NIH3T3 mouse fibroblast line. Put plainly: MTT assay, normal cells NIH3T3. The conditions noted are these: for LD50 Normal cells NTH3T3: mouse, 48 h. The text has this: (§1) The cytotoxicity against normal cells and cancer cells was confirmed using the MTT assay for the novel compounds KP2 to KP8 prepared in Example 1.
(§2) MTT assay method is as follows:
(§3) Normal cells (RAW264.7 rat macrophage cell line (osteoblast progenitor cell) and NIH3T3 mouse fibroblast line) and cancer cells (AGS human gastric cancer cell line, A549 human lung cancer cell line, HepG2 human liver cancer cell line, HCT116 human colon cancer cell line, PC3 human prostate cancer Cell line, Caki-1 human kidney cancer cell line, T24 human bladder cancer cell line, HT1080 human fibrosarcoma cell line, B16F10 mouse melanoma cell line) were cultured in 5% CO2 in 96-well plates containing DMEM with 10% FBS (fetal bovine serum). After incubation, KP2 to KP8 and controls (osmundacetone and 4-hydroxybenzalacetone) were added to the cell medium and incubated for 48 hours. Thereafter, 100 μl of MTT (0.5 mg/mL phosphate buffered saline) was added, followed by incubation for 2 hours. 100 μl of DMSO was added to each well, followed by incubation for 10 minutes, and the absorbance was measured at 550 nm using a microplate reader (SPCTRA MAX 340PC, Molecular Devices, USA). Absorbance is calculated by the formula below as an indicator of the number of cells that survived, and reproducibility was confirmed by three experiments.
(§4) The rate of cell proliferation (%)=OD550(sample)/OD550(control)

Series [2] concerns RAW264.7 rat macrophage cell line. Put plainly: MTT assay, normal cells RAW264.7. To be noted: rat, 48 h.
Text: as §1, §2, §3, §4

Series [3] deals with B16F10 mouse melanoma cell line. Put plainly: MTT assay, cancer cells B16F10. The conditions noted are these: 48 hours, H16F10.
Text: as §1, §2, §3, §4
On the technique in general: Tetrazolium assays rely on reduction of a dye to a coloured formazan, in cell work by metabolically active cells.

For series [4], the system named is PC3 human prostate cancer Cell line. Put plainly: MTT assay, cancer cells PC3. The conditions noted are these: 48 hours.
Text: as §1, §2, §3, §4

Series [5] has as its system HCT116 human colon cancer cell line. Put plainly: MTT assay, cancer cells HCT116. The conditions noted are these: for inhibitory activity better than Osmundacetone: HP116 colorectal cancer cells; for LD63 Cancer cell HCT116: MTT assay, 48 hours.
Text: as §1, §2, §3, §4

Series [6] relates to HepG2 human liver cancer cell line. Put plainly: MTT assay, cancer cells HepG2. The conditions noted are these: for cancer cell inhibitory activity versus Osmundacetone: HepG2 hepatocellular carcinoma cells; for LD63 Cancer cell HepG2: MTT assay, 48 hours.
Text: as §1, §2, §3, §4

The test system of series [7] is T24 human bladder cancer cell line. Put plainly: MTT assay, cancer cells T24. The conditions noted are these: MTT assay, 48 hours, T24.
Text: as §1, §2, §3, §4

In series [8] the test system is A549 human lung cancer cell line. Put plainly: MTT assay, cancer cells A549. To be noted: for LD63 Cancer cell A549: MTT assay, 48 hours.
Text: as §1, §2, §3, §4

The test system of series [9] is Caki-1 human kidney cancer cell line. Put plainly: MTT assay, cancer cells Caki-1. To be noted: 48 hours.
Text: as §1, §2, §3, §4

Series [10] relates to AGS human gastric cancer cell line. Put plainly: MTT assay, cancer cells AGS. To be noted: 48 hours.
Text: as §1, §2, §3, §4

Series [11] has as its system HT1080 human fibrosarcoma cell line. Put plainly: MTT assay, cancer cells HT1080. The conditions noted are these: 48 hours.
Text: as §1, §2, §3, §4

The subject of series [12] is osteoblasts (mouse MC3T3-E1). Put plainly: ALP (Alkaline phosphatase) assay, osteoblast activity. To be noted: for % Activation of ALP activity: MC3T3-E1, 14 days, percentage against control. The method, then:
Effect of KP4 to KP6 on proliferation and differentiation of osteoblast were confirmed using ALP (Alkaline phosphatase) assay, a method for measuring osteoblast activity.
Alkaline phosphatase (ALP), which is present in the cell membranes of osteoblasts, is known as a marker of osteoblast activity and is a regulator of inorganic phosphate transport, cell division or differentiation during calcification. Therefore, ALP activity was measured to determine the effect of the compounds of the present invention on the activity of osteoblasts. ALP activity was indirectly calculated by measuring the amount of p-nitrophenol, which is produced from hydrolysis of p-nitrophenyl phosphate (pNPP, Sigma, St. Louis, Mo., USA) in which ALP act as a catalyst, using a microplate reader at 405 nm wavelength.
Specifically, osteoblasts (mouse MC3T3-E1) were aliquoted into a 96-well plate (3×10^3 cells/100 μL/well) with α-MEM medium containing ascorbic acid (50 μg/mL) and 10 mM β-glycerophosphate, a differentiation factors of osteoblast. Then, KP4 to KP6 of the present invention, and osmundacetone were added at a final concentration of 10 μM and 50 μM, followed by changing medium every 72 hours and incubating for 14 days. After 14 days, the culture medium was removed from each well, washed three times with PBS, lysed with 0.2% Nonidet P-40/10 mmol/L MgCl2, and then treated ultrasonic wave with sosonifier cell disrupter (Model W-380, Heat Systems-Ultrasonics Inc., Farmingdale, N.Y.) for 3 minutes. The cell lysate was centrifuged at 1500 g for 10 minutes and the supernatant was collected to measure ALP activity. To account for changes in ALP activity according to cell number differences, total protein levels were measured using bicinchoninic acid (BCA) protein assay kit with bovine serum albumin as the standard protein, and enzyme activity was expressed as a percentage against the control group without the compound treatment.

For `CC(=O)C=Cc1ccc(O)cc1` [4-Hydroxybenzalacetone, reference compound], the “LD50 Normal cells NTH3T3” value in series [1] is 201 ± 10 µM. In addition, in [2], the “LD50 Normal cells RAW264.7” value was determined as 294 ± 45 µM.

Consider `CC(=O)/C=C/c1ccc(C)c(O)c1` [KP2, (E)-4-(3-hydroxy-4-methylphenyl)but-3-en-2-one], for which, in series [1], the “cytotoxicity to normal cells” value is reported as “weak cytotoxicity” and the “LD50 Normal cells NTH3T3” value came to 688 ± 12 µM. In addition, in [3], the “Cytotoxicity, B16F10 cells” value came out at 298 ± 27 µM. The “LD63 Cancer cell PC3” value in series [4] is 309 ± 3.1 µM. Also, in [5], the “inhibitory activity better than Osmundacetone” value was 2 times and the “LD63 Cancer cell HCT116” value was 380 ± 32 µM. Besides, in series [6], the “cancer cell inhibitory activity versus Osmundacetone” value was “significantly better cancer cell inhibitory activity” and the “LD63 Cancer cell HepG2” value amounted to 339 ± 79 µM. In addition, the “LD63 Cancer cell T24” value in series [7] turned out to be 1120 ± 67 µM. The “cancer cell inhibitory activity versus Osmundacetone” value in series [8] (A549 lung cancer cells) is reported as “significantly better cancer cell inhibitory activity”. The “LD63 Cancer cell A549” value in series [8] turned out to be 471 ± 24 µM. Moreover, the “LD63 Cancer cell Caki-1” value in series [9] was found to be 387 ± 57 µM. The “LD50 Normal cells RAW264.7” value in series [2] stood at 395 ± 22 µM. In addition, the “LD63 Cancer cell AGS” value in series [10] is 209 ± 5.9 µM. The “LD63 Cancer cell HT1080” value in series [11] worked out at 256 ± 14 µM.

With `CC(=O)/C=C/c1ccc(F)c(O)c1` [KP3, (E)-4-(4-fluoro-3-hydroxyphenyl)but-3-en-2-one], the “LD50 Normal cells NTH3T3” value in [1] is greater than 5000 µM. In addition, the “Cytotoxicity, B16F10 cells” value in series [3] came out at 278 ± 15 µM. In addition, in series [4], the “LD63 Cancer cell PC3” value worked out at 387 ± 48 µM. Further, in [5], the “inhibitory activity better than Osmundacetone” value is 2 times and the “LD63 Cancer cell HCT116” value turned out to be 389 ± 18 µM. For the same compound, in series [6], the “LD63 Cancer cell HepG2” value came to 612 ± 95 µM. The “LD63 Cancer cell T24” value in series [7] is listed as >5,000 μM. Further, the “LD63 Cancer cell A549” value in series [8] stood at 1090 ± 46 µM. Further, the “LD63 Cancer cell Caki-1” value in series [9] turned out to be 408 ± 12 µM. In addition, the “LD50 Normal cells RAW264.7” value in series [2] is 503 ± 57 µM. Also, the “LD63 Cancer cell AGS” value in series [10] was 239 ± 14 µM. The “LD63 Cancer cell HT1080” value in [11] is 379 ± 10 µM.

`COc1cc(/C=C/C(C)=O)ccc1O` [KP4, (E)-4-(4-hydroxy-3-methoxyphenyl)-3-buten-2-one]: the “LD50 Normal cells NTH3T3” value in series [1] was greater than 5000 µM. In series [3], the “Cytotoxicity, B16F10 cells” value is 423 ± 39 µM. In addition, the “LD63 Cancer cell PC3” value in series [4] is 223 ± 85 µM. Moreover, the “LD63 Cancer cell HCT116” value in series [5] worked out at 495 ± 13 µM. Further, in series [7], the “LD63 Cancer cell T24” value was greater than 5000 µM. In [8], the “LD63 Cancer cell A549” value was 3010 ± 38 µM. Further, the “LD63 Cancer cell Caki-1” value in series [9] came out at 506 ± 13 µM. Also, the “LD50 Normal cells RAW264.7” value in series [2] was found to be 399 ± 42 µM. The “ALP activity / osteoblast activation versus control” value in series [12] (10 μM and 50 μM) is given as “higher ALP activity”. In series [12] (10 μM), the “% Activation of ALP activity” value stood at 113 ± 2.9%. For the same compound, in [12] (50 μM), the “ALP activity increase compared with the control group” value was no less than 400%, the “osteoblast activity compared to osmundacetone treat group” value is given as 1.5 times and the “% Activation of ALP activity” value came to 422 ± 6.9%. Also, the “LD63 Cancer cell AGS” value in series [10] turned out to be 417 ± 15 µM. The “LD63 Cancer cell HT1080” value in series [11] was >5,000 μM.

As to `Cc1ccc(/C=C/C(N)=O)cc1O` [KP7, (E)-3-(3-hydroxy-4-methylphenyl)acrylamide], the “LD50 Normal cells NTH3T3” value in series [1] is greater than 5000 µM. Further, the “Cytotoxicity, B16F10 cells” value in [3] was determined as 1210 ± 110 µM. Further, the “LD63 Cancer cell PC3” value in [4] was 394 ± 140 µM. In addition, in series [5], the “inhibitory activity better than Osmundacetone” value was determined as 2 times and the “LD63 Cancer cell HCT116” value turned out to be 315 ± 19 µM. Moreover, in [6], the “cancer cell inhibitory activity versus Osmundacetone” value was “significantly better cancer cell inhibitory activity” and the “LD63 Cancer cell HepG2” value worked out at 379 ± 38 µM. Moreover, in series [7], the “LD63 Cancer cell T24” value turned out to be 1040 ± 360 µM. Further, the “LD63 Cancer cell A549” value in [8] came out at 989 ± 50 µM. The “LD63 Cancer cell Caki-1” value in series [9] is 361 ± 16 µM. Also, the “LD50 Normal cells RAW264.7” value in [2] is greater than 5000 µM. Moreover, in series [10], the “LD63 Cancer cell AGS” value amounted to 329 ± 14 µM. Moreover, in series [11], the “LD63 Cancer cell HT1080” value amounted to 309 ± 10 µM.
